Results reported in patent US10328148B2, “Protein drug formulations and packages” (Purdue Research Foundation, priority 2010, dated 2019).

Columns and labels:
[1] = tested on: human IgG; experiment: Screening of peptides immobilized on POROS-Aldehyde resin for binding of IgG; conditions: for Affinity for IgG: immobilized peptides from proteolytic digests; for Selectivity of IgG binding: immobilized peptide, IgG from human plasma
Excerpt: Identifying Peptide Epitopes with Affinity for IgG. Peptide epitopes with high affinity for IgG may be derived readily from combinatorial libraries and proteolytic digests of protein mixtures. Proteolytic digests of Protein G were immobilized on POROS-Aldehyde resin by Schiff base coupling at their N-termini and the peptides screened for their ability to bind IgG from human plasma. […] In all, four peptides showing high affinity for IgG were isolated from protein G digests by this method. Similar peptides with high affinity for human IgG were also isolated and characterized from cytochrome c ([…]) (SEQ ID NO: 6) and mouse anti-human polyclonal IgG digests ([…]) (SEQ ID NO: 7) using this method. […] Without being bound by theory, it is believed herein that because ethylene glycol assists elution, some hydrophobic effects may also be involved.

[2] = tested on: IgG; experiment: HP-SEC of IgG with free Protein A or Protein G: complex formation and agitation-induced aggregation; type: physicochemical; conditions: IgG:Protein A or G ratio 1:4, RT 2 h
Method: Effect of proteins A and G on aggregation of IgG. High performance size exclusion chromatography (HP-SEC) is used to verify that IgG binds with Protein A or Protein G completely. 50 µL aliquots are injected to a Tosoh TSK G 13000 SWXL Gel 3000 column ([…]×7.8 mm) and separated at a flow rate of 0.5 mL/min. The mobile phase contains 50 mM potassium phosphate and 100 mM K2SO4 at pH 7.1. The relative percentage of IgG monomer and dimer are calculated in triplicate as a percentage of the total chromatographic peak area at 280 nm. Fresh IgG is incubated with free Protein A or free Protein G, respectively, at IgG:Protein A or G ratio of 1:4 at RT for 2 h before being subjected to agitation. […] Effect of agitation of protein A and protein G complexes of IgG. The prior Example 1 is repeated, subjecting the IgG+Protein A or IgG+Protein G to agitation on a shaker at room temperature for 44 h.

Substance	Affinity for IgG [1]	Selectivity of IgG binding [1]	further results
CAQCHTVEK (listed as Staphylococcus aureus) [peptide isolated from cytochrome c digest]	high affinity		
GAQGHVVEK (listed as Staphylococcus aureus) [peptide isolated from mouse anti-human polyclonal IgG digests]	high affinity		
TVTEKVIDASELTPAVT (listed as Staphylococcus aureus) [peptide from proteolytic digest of Protein G]		comparable to Protein A	
TVTEKPEV (listed as Staphylococcus aureus) [peptide from proteolytic digest of Protein G]		comparable to Protein A	Binding constant for human IgG ([1]; by HPLC methods): ~1e+06 M⁻¹
Protein A: free Protein A, immunoglobulin-binding protein used as polyamino acid ligand			Complex formation with IgG by HP-SEC [2]: formation of IgG-Protein A and IgG-Protein G complexes
